The subject of this experiment is P388 leukemia ip, CD2F1 mice, survival T/C. The experiment is described as follows: NCI In Vivo Anticancer Drug Screen. Data for tumor model P388 Leukemia (intraperitoneal) in CD2F1 (CDF1) mice. The note with it: endpoint: median survival time, higher = longer survival. The essentials: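 Mice carrying the transplanted tumor received test compound or vehicle. Survival was recorded in each group, and the value is the treated-group measurement divided by that of the vehicle-treated control group.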

The mark [1] stands for this setting: dose: 50.0 mg/kg/injection, schedule: Q01DX009 (ip), vehicle: saline.
Setting [2] is: dose: 100.0 mg/kg/injection, schedule: Q01DX009 (ip), vehicle: saline.
Where [3] appears, read: dose: 200.0 mg/kg/injection, schedule: Q01DX009 (ip), vehicle: saline.
Where [4] appears, read: dose: 50.0 mg/kg/injection, schedule: Q01DX009 (ip), vehicle: saline with Tween-80.
[5] abbreviates: dose: 100.0 mg/kg/injection, schedule: Q01DX009 (ip), vehicle: saline with Tween-80.
Setting [6] is: dose: 100.0 mg/kg/injection, schedule: Q01DX009 (ip), vehicle: Klucel (hydroxypropylcellulose) (HPC).
Where [7] appears, read: dose: 200.0 mg/kg/injection, schedule: Q01DX009 (ip), vehicle: Klucel (hydroxypropylcellulose) (HPC).
[8] abbreviates: dose: 400.0 mg/kg/injection, schedule: Q01DX009 (ip), vehicle: Klucel (hydroxypropylcellulose) (HPC).
[9] abbreviates: dose: 100.0 mg/kg/injection, schedule: Q04DX003 (ip), vehicle: saline with Tween-80.
[10] abbreviates: dose: 200.0 mg/kg/injection, schedule: Q04DX003 (ip), vehicle: saline with Tween-80.
Where [11] appears, read: dose: 400.0 mg/kg/injection, schedule: Q04DX003 (ip), vehicle: saline with Tween-80.
[12] abbreviates: dose: 50.0 mg/kg/injection, schedule: Q01DX005 (ip), vehicle: Klucel (hydroxypropylcellulose) (HPC).
[13] abbreviates: dose: 50.0 mg/kg/injection, schedule: Q01DX005 (ip), vehicle: saline with Tween-80.
[14] abbreviates: dose: 100.0 mg/kg/injection, schedule: Q01DX005 (ip), vehicle: saline with Tween-80.
The mark [15] stands for this setting: dose: 200.0 mg/kg/injection, schedule: Q01DX005 (ip), vehicle: saline with Tween-80.
[16] abbreviates: dose: 25.0 mg/kg/injection, schedule: Q01DX009 (ip), vehicle: saline.
Where [17] appears, read: dose: 200.0 mg/kg/injection, schedule: Q01DX009 (ip), vehicle: saline with Tween-80.

Values joined by “and” are separate entries in the source; they are usually repeats but may differ in a detail not shown here. Equal values may be shown once. Toxic doses and inconclusive results are not listed.

As to `CCCN1C=C(C(=O)OC)C(N)=C(C#N)/C1=C\C=C(/C#N)C(=O)OC`, the T/C was 93 % of control (dose: 50.0 mg/kg/injection, schedule: Q04DX002 (ip), vehicle: Klucel (hydroxypropylcellulose) (HPC)); 100 % of control (dose: 100.0 mg/kg/injection, schedule: Q04DX002 (ip), vehicle: Klucel (hydroxypropylcellulose) (HPC)); 90 % of control (dose: 200.0 mg/kg/injection, schedule: Q04DX002 (ip), vehicle: Klucel (hydroxypropylcellulose) (HPC)).

For `COc1cc2cc(=O)n(N)c(C)c2cc1OC`, the T/C was 108 % of control under setting [1], 106 % of control under setting [2] and 99 % of control under setting [3].

For the molecule `CC(C)(C)N(C/C=C/CN(Cc1ccccc1)Cc1ccccc1)C(C)(C)C`, the T/C reads like this: under setting [4], 87 % of control; under setting [5], 95 % of control.

In the case of `O=C1NC(=O)c2c(Br)c(Br)c(Br)c(Br)c21`, the T/C was 109 % of control (dose: 50.0 mg/kg/injection, schedule: Q01DX009 (ip), vehicle: Klucel (hydroxypropylcellulose) (HPC)); 109 % of control under setting [6]; 105 % of control under setting [7]; 96 % of control under setting [8].

Consider `CCN(CC)C1CS(=O)(=O)OC2=C1CSCC2` (centres undefined), for which the T/C is, setting by setting: under setting [9], 102 % of control; under setting [10], 100 % of control; under setting [11], 95 % of control.

On to `CC(C)(C)OC(=O)C(CC(=O)O)=C(c1ccccc1)c1ccccc1`, for which the T/C by setting is: under setting [6], 100 % of control; under setting [7], 100 % of control; under setting [8], 95 % of control.

On to `Cc1oc(N)c(C(N)=O)c1C`, for which the T/C was 115 % of control (dose: 100.0 mg/kg/injection, schedule: Q01DX009 (ip), vehicle: saline sonified); 110 % of control (dose: 200.0 mg/kg/injection, schedule: Q01DX009 (ip), vehicle: saline sonified); 115 % of control (dose: 400.0 mg/kg/injection, schedule: Q01DX009 (ip), vehicle: saline sonified).

On to `CCCCCCCCCCC/C=C/[N+](=O)[O-]`, for which the T/C (dose: 5.0 mg/kg/injection, schedule: Q01DX005 (ip), vehicle: Klucel (hydroxypropylcellulose) (HPC)) was 101 % of control; the T/C (dose: 10.0 mg/kg/injection, schedule: Q01DX005 (ip), vehicle: Klucel (hydroxypropylcellulose) (HPC)) is 99 % of control; the T/C (dose: 20.0 mg/kg/injection, schedule: Q01DX005 (ip), vehicle: Klucel (hydroxypropylcellulose) (HPC)) is 104 % of control; the T/C (dose: 40.0 mg/kg/injection, schedule: Q01DX005 (ip), vehicle: Klucel (hydroxypropylcellulose) (HPC)) is 99 % of control.

`COc1ccc(C(=O)CC(C(=O)O)c2ccc(OC)c(OC)c2)cc1OC` (centres undefined): the T/C reads like this: under setting [9], 90 % of control; under setting [10], 86 % of control; under setting [11], 86 % of control.

In the case of `COc1ccc2c(c1)[C@@]13CCCC[C@H]1[C@@H](C2)[N+](CC1CC1)=CC3=NO`, the T/C was 111 % of control under setting [12]; 102 % of control (dose: 100.0 mg/kg/injection, schedule: Q01DX005 (ip), vehicle: Klucel (hydroxypropylcellulose) (HPC)); 105 % of control (dose: 200.0 mg/kg/injection, schedule: Q01DX005 (ip), vehicle: Klucel (hydroxypropylcellulose) (HPC)).

Regarding `CN1c2ccccc2C2CCCCC21` (centres undefined), the T/C is 100 % of control under setting [13], 99 % of control under setting [14] and 111 % of control under setting [15].

For `CCC(=O)NC(Cc1cccs1)C(=O)O` (centres undefined), the T/C runs as follows: (dose: 6.25 mg/kg/injection, schedule: Q01DX009 (ip), vehicle: saline) 107 % of control; (dose: 12.5 mg/kg/injection, schedule: Q01DX009 (ip), vehicle: saline) 105 % of control; under setting [16], 93 % of control; under setting [2], 88 % of control; under setting [3], 91 % of control.

For the molecule `CCOc1ccc(CO)cc1`, the T/C is, setting by setting: under setting [9], 120 % of control; under setting [10], 120 % of control; under setting [11], 120 % of control.

Turning to `C[C@]12Cc3cnc(N)nc3C[C@@H]1CC[C@@H]1[C@@H]2CC[C@@]2(C)[C@H]1CC[C@]2(C)O`, the T/C by setting is: under setting [13], 99 % of control; under setting [14], 89 % of control; under setting [15], 89 % of control.

With `c1cc2c(cc1CSCc1c(CSCc3ccc4c(c3)OCO4)c(CSCc3ccc4c(c3)OCO4)c(CSCc3ccc4c(c3)OCO4)c(CSCc3ccc4c(c3)OCO4)c1CSCc1ccc3c(c1)OCO3)OCO2`, the T/C reads like this: under setting [4], 100 % of control; under setting [5], 99 % of control; under setting [17], 97 % of control.

Turning to `CCCOc1ccc(C(C)c2cc3c(cc2OCC)OCO3)cc1` (centres undefined), the T/C is, setting by setting: (dose: 50.0 mg/kg/injection, schedule: Q01DX005 (ip), vehicle: Klucel + Tween-80) 104 % of control; (dose: 100.0 mg/kg/injection, schedule: Q01DX005 (ip), vehicle: Klucel + Tween-80) 98 % of control; (dose: 200.0 mg/kg/injection, schedule: Q01DX005 (ip), vehicle: Klucel + Tween-80) 97 % of control.

Consider `CN(C)C(=O)NC1CCC2CCCCC2C1` (centres undefined), for which the T/C is 100 % of control (dose: 100.0 mg/kg/injection, schedule: Q01DX001 (ip), vehicle: saline); 99 % of control (dose: 200.0 mg/kg/injection, schedule: Q01DX001 (ip), vehicle: saline); 98 % of control (dose: 400.0 mg/kg/injection, schedule: Q01DX001 (ip), vehicle: saline).

Take `CN1CCCN(C(c2ccccc2)c2ccc(Br)cc2)CC1` (centres undefined): the T/C reads like this: under setting [16], 97 % of control; under setting [1], 103 % of control; under setting [2], 101 % of control and 91 % of control.

Consider `NC(CC(C(=O)O)c1ccccc1)C(=O)O` (centres undefined), for which the T/C runs as follows: under setting [4], 106 % of control; under setting [5], 94 % of control; under setting [17], 94 % of control.

Consider `C=CCCCC(=O)CCCCBr`, for which the T/C runs as follows: under setting [4], 122 % of control; under setting [5], 108 % of control; under setting [17], 110 % of control.

On to `N/C(CC(=O)Nc1ccc(F)cc1)=N\O`, for which the T/C is 108 % of control (dose: 60.0 mg/kg/injection, schedule: Q01DX005 (ip), vehicle: saline with Tween-80); 102 % of control (dose: 120.0 mg/kg/injection, schedule: Q01DX005 (ip), vehicle: saline with Tween-80); 100 % of control (dose: 240.0 mg/kg/injection, schedule: Q01DX005 (ip), vehicle: saline with Tween-80).

For the molecule `O=C(O)C1CCC[N-]1.[Cl][Pt][Cl]` (centres undefined), the T/C was 110 % of control (dose: 25.0 mg/kg/injection, schedule: Q04DX003 (ip), vehicle: water); 94 % of control (dose: 50.0 mg/kg/injection, schedule: Q04DX003 (ip), vehicle: water); 157 % of control (dose: 100.0 mg/kg/injection, schedule: Q04DX003 (ip), vehicle: saline); 157 % of control (dose: 150.0 mg/kg/injection, schedule: Q04DX003 (ip), vehicle: saline).

`NC(=O)NO`: the T/C is 83 % of control (dose: 112.0 mg/kg/injection, schedule: Q03HX024 (ip), vehicle: saline); 160 % of control under setting [3]; 185 % of control (dose: 300.0 mg/kg/injection, schedule: Q01DX009 (ip), vehicle: saline); 160 % of control and 184 % of control (dose: 450.0 mg/kg/injection, schedule: Q01DX009 (ip), vehicle: saline); 200 % of control (dose: 500.0 mg/kg/injection, schedule: Q01DX009 (ip), vehicle: saline); 100 % of control and 98 % of control (dose: 750.0 mg/kg/injection, schedule: Q01DX009 (ip), vehicle: saline). Besides, the T/C (dose: 2000.0 mg/kg/injection, schedule: Q01DX001 (ip), vehicle: saline) was 98 % of control.

Consider `C1=NCc2ccsc2-n2cccc21`, for which the T/C was 100 % of control (dose: 25.0 mg/kg/injection, schedule: Q01DX005 (ip), vehicle: Klucel (hydroxypropylcellulose) (HPC)) and 105 % of control under setting [12].

As to `Cc1onc(-c2ccccc2Cl)c1C(=O)SCC(=O)Nc1cc(C(F)(F)F)cc(C(F)(F)F)c1`, the T/C runs as follows: under setting [4], 98 % of control; under setting [5], 100 % of control; under setting [17], 89 % of control.

Turning to `CC1Cc2ccc(OCCN(C)C)cc2C1=O` (centres undefined), the T/C was 98 % of control under setting [13] and 99 % of control under setting [14].

For the origin of these results see PubChem BioAssay AID330 (DTP/NCI, 2004).
